± gives the uncertainty stated by the source.
Test: xn = mol fraction of the nth substance listed

CCCCCOC(C)=O + ClCCCl
303.15 K, 101.3 kPa
Details	viscosity [mPa·s]
x1 = 0.1052	0.7366 ± 0.0062
x1 = 0.196	0.7444 ± 0.0062
x1 = 0.303	0.7582 ± 0.0063
x1 = 0.4004	0.7651 ± 0.0063
x1 = 0.4924	0.7693 ± 0.0064
x1 = 0.5994	0.7716 ± 0.0064
x1 = 0.702	0.7686 ± 0.0064
x1 = 0.805	0.762 ± 0.0063
x1 = 0.8946	0.7597 ± 0.0063

CC1CCCO1 (stereo not given) + Clc1ccccc1
298.15 K, 101 kPa
Details	viscosity [mPa·s]
x2 = 0.0188	0.47 ± 0.0055
x2 = 0.0509	0.482 ± 0.0056
x2 = 0.103	0.501 ± 0.0056
x2 = 0.157	0.52 ± 0.0057
x2 = 0.2126	0.54 ± 0.0058
x2 = 0.2712	0.56 ± 0.0058
x2 = 0.3298	0.579 ± 0.0059
x2 = 0.3913	0.598 ± 0.0059
x2 = 0.4548	0.617 ± 0.006
x2 = 0.5206	0.635 ± 0.006
x2 = 0.5892	0.654 ± 0.0061
x2 = 0.6601	0.671 ± 0.0061
x2 = 0.7334	0.689 ± 0.0061
x2 = 0.8094	0.705 ± 0.0062
x2 = 0.889	0.722 ± 0.0062
x2 = 0.9713	0.737 ± 0.0062

CCOC(=O)CC + Clc1ccccc1
viscosity [mPa·s], 101.3 kPa
Details	308.15 K	318.15 K
x1 = 0.0485	0.647 ± 0.006	0.598 ± 0.005
x1 = 0.102	0.636 ± 0.006	0.588 ± 0.005
x1 = 0.1976	0.616 ± 0.005	0.57 ± 0.005
x1 = 0.307	0.594 ± 0.005	0.55 ± 0.005
x1 = 0.3981	0.576 ± 0.005	0.534 ± 0.005
x1 = 0.4981	0.557 ± 0.005	0.517 ± 0.005
x1 = 0.6116	0.535 ± 0.005	0.498 ± 0.005
x1 = 0.7034	0.519 ± 0.005	0.483 ± 0.004
x1 = 0.7992	0.501 ± 0.005	0.467 ± 0.004
x1 = 0.9	0.484 ± 0.004	0.451 ± 0.004
x1 = 0.9478	0.476 ± 0.004	0.444 ± 0.004

ClCC(Cl)Cl + N#CCc1ccccc1
Details	viscosity [mPa·s]
303.15 K, 101 kPa, x2 = 0.3463	1.365 ± 0.019

C1CNCCN1.C1CNCCN1.C1CNCCN1.O=C(O)CC(O)(CC(=O)O)C(=O)O.O=C(O)CC(O)(CC(=O)O)C(=O)O + O
viscosity [mPa·s], 101.3 kPa
Details	293.15 K	303.15 K	313.15 K
x1 = 0.000319	1.035 ± 0.022	0.826 ± 0.018	0.679 ± 0.015
x1 = 0.000781	1.073 ± 0.023	0.857 ± 0.018	0.708 ± 0.015
x1 = 0.000911	1.086 ± 0.023	0.865 ± 0.019	0.716 ± 0.015
x1 = 0.00105	1.101 ± 0.024	0.877 ± 0.019	0.725 ± 0.016
x1 = 0.00119	1.115 ± 0.024	0.888 ± 0.019	0.733 ± 0.016
x1 = 0.00134	1.132 ± 0.024	0.901 ± 0.019	0.743 ± 0.016
x1 = 0.00149	1.148 ± 0.025	0.914 ± 0.02	0.753 ± 0.016
x1 = 0.00166	1.166 ± 0.025	0.928 ± 0.02	0.763 ± 0.016
x1 = 0.00179	1.179 ± 0.025	0.939 ± 0.02	0.771 ± 0.017
x1 = 0.001875	1.188 ± 0.026	0.945 ± 0.02	0.775 ± 0.017
x1 = 0.002838	1.303 ± 0.028	1.034 ± 0.022	0.834 ± 0.018

C[NH+]1CCCC1=O.O=S(=O)([O-])c1ccccc1 + O
viscosity [mPa·s]
Details	293.15 K	298.15 K	303.15 K	308.15 K
100 kPa, x1 = 0.001798	1.074 ± 0.012	0.9472 ± 0.011	0.8439 ± 0.0098	0.7688 ± 0.0089
100 kPa, x1 = 0.003606	1.137 ± 0.013	–	0.8882 ± 0.01	0.8029 ± 0.0093
100 kPa, x1 = 0.005372	1.198 ± 0.014	1.053 ± 0.012	0.9316 ± 0.011	–
100 kPa, x1 = 0.008042	1.285 ± 0.015	–	0.998 ± 0.011	0.8943 ± 0.01
100 kPa, x1 = 0.01069	1.372 ± 0.016	1.206 ± 0.014	–	0.9518 ± 0.011
100 kPa, x1 = 0.01421	1.491 ± 0.017	–	–	–
100 kPa, x1 = 0.02115	1.749 ± 0.02	–	–	–
100 kPa, x1 = 0.02631	1.971 ± 0.023	1.746 ± 0.02	1.541 ± 0.018	1.369 ± 0.016
100 kPa, x1 = 0.03141	2.217 ± 0.026	1.963 ± 0.023	1.737 ± 0.02	1.527 ± 0.018
101 kPa, x1 = 0.005347	–	1.055 ± 0.012	–	–
101 kPa, x1 = 0.01545	–	–	1.185 ± 0.014	–

O=C([O-])CC(O)(CC(=O)[O-])C(=O)[O-].[NH3+]CCO.[NH3+]CCO.[NH3+]CCO + O
viscosity [mPa·s], 101 kPa
Details	x1 = 0.0053	x1 = 0.012	x1 = 0.02	x1 = 0.031	x1 = 0.046	x1 = 0.067	x1 = 0.16
293.15 K	1.211 ± 0.097	1.575 ± 0.13	2.21 ± 0.18	3.385 ± 0.27	6.303 ± 0.51	12.36 ± 1.1	106.7 ± 8.8
303.15 K	0.9345 ± 0.075	1.18 ± 0.095	1.608 ± 0.13	2.382 ± 0.19	4.312 ± 0.35	8.015 ± 0.66	66.19 ± 5.4
313.15 K	0.7529 ± 0.06	0.9296 ± 0.075	1.227 ± 0.099	1.786 ± 0.14	3.032 ± 0.25	5.371 ± 0.44	39.23 ± 3.2
323.15 K	0.6242 ± 0.05	0.7501 ± 0.06	0.9638 ± 0.078	1.351 ± 0.11	2.228 ± 0.18	3.77 ± 0.31	21.96 ± 1.8

OCCOCCOCCOCCOCCOCCOCCOCCOCCO + O
viscosity [mPa·s], 100 kPa
Details	293.15 K	298.15 K	303.15 K	308.15 K	313.15 K	318.15 K	323.15 K
x2 = 0.093	124.5 ± 4.9	93.99 ± 3	72.59 ± 1.6	57.45 ± 1	46.04 ± 0.8	37.51 ± 0.59	30.97 ± 0.45
x2 = 0.12	121.6 ± 4.6	92.08 ± 2.4	71.18 ± 1.1	56.4 ± 0.7	45.22 ± 0.56	36.83 ± 0.41	30.41 ± 0.31
x2 = 0.187	120.7 ± 4.6	91.49 ± 2.4	70.11 ± 1.1	55.25 ± 0.66	44.27 ± 0.54	36.03 ± 0.4	29.76 ± 0.3
x2 = 0.256	117.4 ± 4.5	88.73 ± 2.2	68.34 ± 0.97	54.28 ± 0.58	43.47 ± 0.48	35.36 ± 0.34	29.19 ± 0.25

Source: the CheMixHub viscosity set
